Assay results from patent publication US20200385423A1, “USE OF EXCITATORY NERVE INJURY-RELATED POLYPEPTIDE IN PREVENTING, ALLEVIATING OR TREATING PAIN” (Biocells (Beijing) Biotech Co., Ltd., priority 2016, published 2020).

Tests used:
Assay type in all cases: in vivo, rat
[1] = test system: rats; assay: Acute toxicity tests on rats; details: dose of 1000 mg/kg body weight
Procedure: Acute toxicity tests were performed on rats.

[2] = test system: SD rats; assay: Needling experiment (vonFrey probe) in rats with sciatic nerve ligation; details: for paw lifting threshold due to needling at surgical side after administration: P5 0.2 μg/kg caudal vein, ibuprofen 50 mg/kg intragastric
Procedure: Eighteen male SD rats of 240-260 g (purchased from Huafukangcheng Co., Ltd.) were selected as experimental rats, and divided into three groups with six rats in each group for a needling experiment, including a group administered with the polypeptide at a dose of 0.2 μg/kg, a normal saline group and a positive control drug group (ibuprofen, 50 mg/kg).
(§1) 4.0 chromic catguts (purchased from Shandong Boda Medical Products Co., Ltd.) were immersed into normal saline (purchased from Shijiazhuang Four Medicine Co., Ltd., National Pharmaceutical Standard H13023200) for 30 minutes for softening. Rats were shaved in the middle of their thighs, and wiped with iodine. Wound at 1 cm below the epidermis was created with a scissor, and then a J31060 hemostat was used to tear the biceps femoris. The sciatic nerve was thus exposed at the middle of the thighs. The end proximal to the leg was the trigeminal sciatic nerve. The sciatic nerve at the middle of the thighs was gently ligated four times with the 4.0 chromic catguts. The force was deemed appropriate if muscles near the ligation site slightly trembled. The adjacent ligation sites were 1 mm apart. Then muscles and epidermal tissues were sutured separately.
(§2) Before the experiment, the rats with successful surgery in the test group were injected via caudal vein with Peptide P5 in normal saline (dose at 0.2 μg/kg). Rats in normal saline group were intraperitoneally injected with 0.3 mL of normal saline. The positive drug group was administered via intragastric infusion with ibuprofen suspension (purchased from Shanghai Qiangsheng Pharmaceutical Co., Ltd., National Pharmaceutical Standard H19991011) at a dose of 50 mg/kg.
Fourteen days after surgery, the rats in the administration groups were tested before administration and 10 min\70 min\130 min after administration. The experimental rats were placed in a plexiglass observation chamber to acclimate the environment for 5 minutes until the rats no longer looked around. The ZS-CTY foot needling system (purchased from Beijing Zhongshi Di Chuang Technology Development Co., Ltd.) was connected to a win7 32-bit computer. The test software was opened to calibrate the zero point of the instrument, and then calibrate again after a 10 g weight was added. The vonFrey probe was used to slowly and gently stimulate the middle parts of the testing hind paws of the rats to observe the paw withdrawal reaction of the rats. […] The paw withdrawal reaction of rats due to physical activity was excluded. The reaction was recorded twice at each time point, and averaged to obtain paw lifting force thresholds (in g) due to needling. The foot needling system (purchased from Beijing Zhongshi Di Chuang Technology Development Co., Ltd.; lot. number: 20160101060001) was adjusted to zero with a 10 g weight, there was still a fundamental read fluctuation when the bottom of the rats' paws was needled. The fluctuation was generally between +3 and +5 g, which should be subtracted from the final value. If there was still a baseline, it should be removed.
EXCEL's T-test function (two-tailed variance) was used to analyze the statistical difference in paw lifting force thresholds due to needling between the untreated side and surgical side in the experimental rats to evaluate whether or not the modeling was successful. The difference among the needling pain force thresholds before administration and at each time point after administration was then analyzed to evaluate the pharmaceutical efficacy and effect duration.

[3] = test system: SD rats; assay: Hot plate experiment in rats with sciatic nerve ligation; details: for paw lifting time threshold due to heating pain at surgical side after administration: P5 0.2 μg/kg caudal vein, ibuprofen 50 mg/kg intragastric
Procedure: Eighteen male SD rats of 240-260 g (purchased from Huafukangcheng Co., Ltd.) were selected as experimental rats, and divided into three groups with six rats in each group for a hot plate experiment, including a group administered with Polypeptide P5 at a dose of 0.2 μg/kg, a group administered with normal saline and a group administered with positive control drug (ibuprofen, 50 mg/kg). Screening was conducted before the experiment.
as §1, §2
Hot plate experiments were performed on rats 7 days after surgery. Rats were feed properly, and the indoor environment was maintained at about 25° C. The temperature of the YLS-6B intelligent hot plate instrument (purchased from Beijing Zhongshi Di Chuang Technology Development Co., Ltd.) was set at about 55° C. The rats were placed on the hot plate instrument in a closed, detachable, and transparent plexiglass jar, and the time of occurrence of the hind paw licking or jump reaction was recorded. If there no reaction was observed from the rats with administration 20 seconds after placement in the jar, the SD rats were taken out to avoid scalding the paws due to too long heating. The pain threshold of such rats was calculated as 20 seconds. Each rat was tested twice in succession with the interval of at least 30 seconds. The average of results was calculated.
At the end of the experiment, the heating pain response time (i.e., pain threshold in second) of rats in the normal saline control group and individual drug-administered groups before administration and 10 min, 70 min, and 130 min after administration was recorded.
EXCEL's T-test function (two-tailed variance) was used to analyze the statistical difference between the paw lifting time thresholds due to heating pain of pre-modeling and post-modeling experimental rats to evaluate whether or not the modeling was successful. The difference among the heating pain time thresholds before administration and at each time point after administration was then analyzed to evaluate the pharmaceutical efficacy.

[4] = P5 0.2 μg/kg, ibuprofen 50 mg/kg

Row | SMILES | acute toxicity [1] | paw lifting threshold due to needling at surgical side after administration ([2]; 10 min after administration) | paw lifting threshold due to needling at surgical side after administration ([2]; 70 min after administration) | paw lifting threshold due to needling at surgical side after administration ([2]; 130 min after administration) | duration of therapeutic (analgesic) effect, needling experiment [2, 4] | paw lifting threshold due to needling at surgical side before administration ([2]; baseline 14 days after surgery, before administration) | paw lifting threshold due to needling, healthy side (control) ([2]; healthy side of the group, control value) | paw lifting time threshold due to heating pain at surgical side after administration ([3]; 10 min after administration) | paw lifting time threshold due to heating pain at surgical side after administration ([3]; 70 min after administration) | paw lifting time threshold due to heating pain at surgical side after administration ([3]; 130 min after administration) | duration of therapeutic (analgesic) effect, hot plate experiment [3, 4] | paw lifting time threshold due to heating pain, surgical side before administration ([3]; baseline 7 days after surgery, before administration, hot plate about 55° C.) | paw lifting time threshold due to heating pain, pre-modeling (control) ([3]; baseline of the group before modeling, hot plate about 55° C.)
1 | CC[C@H](C)[C@H](NC(=O)[C@H](CCC(=O)O)NC(=O)[C@@H](NC(=O)[C@H](CC(=O)O)NC(=O)[C@H](CC(C)C)NC(=O)[C@H](CC(C)C)NC(=O)[C@H](CCCCN)NC(=O)[C@H](CCC(=O)O)NC(=O)[C@H](Cc1ccc(O)cc1)NC(=O)[C@H](CCCNC(=N)N)NC(=O)[C@H](CCCNC(=N)N)NC(=O)[C@H](CCCNC(=N)N)NC(=O)[C@H](CCC(N)=O)NC(=O)[C@H](CCCNC(=N)N)NC(=O)[C@H](CCCNC(=N)N)NC(=O)[C@H](CCCCN)NC(=O)[C@H](CCCCN)NC(=O)[C@H](CCCNC(=N)N)NC(=O)CNC(=O)[C@@H](N)Cc1ccc(O)cc1)[C@@H](C)O)C(=O)O [Polypeptide P5] | no lethal effect and other obvious toxic side effects |  |  |  |  |  |  |  |  |  |  |  | 
2 | CC(C)Cc1ccc(C(C)C(=O)O)cc1 (stereo not shown) [ibuprofen] |  | 46.24 g | 36.21 g | 38.88 g | < 130 min | 28.72 g | 73.65 g | 5.74 s | 4.64 s | 4.19 s | < 130 min | 3.95 s | 12.5 s
